Calls of active or inactive are those of the source. The calls are words filed in the database; no cut-off is given here.
tested on: SH-SY5Y; assay: Neuroprotective activity against TBHP-induced oxidative damage in human SH-SY5Y cells assessed as increase in cell viability at 10 uM pretreated for 24 hrs followed by TBHP stimulation measured after 4 hrs by MTT assay relative to control; type: functional, cell-based; conditions: not given

Row | Structure (SMILES) | Activity
1 | O=C(NCCCCCC[P+](c1ccccc1)(c1ccccc1)c1ccccc1)c1cc(O)c(O)c(O)c1.[Br-] | inactive
2 | CS(=O)(=O)[O-].O=C(Cc1ccc(O)c(O)c1)NCCCCCC[P+](c1ccccc1)(c1ccccc1)c1ccccc1 | inactive
3 | CS(=O)(=O)[O-].O=C(Cc1cc(O)c(O)c(O)c1)NCCCCCC[P+](c1ccccc1)(c1ccccc1)c1ccccc1 | inactive

tested on: not listed separately; assay: Cytotoxicity against human SH-SY5Y cells assessed as cell metabolic activity at 50 uM incubated for 24 hrs by MTT assay relative to control; type: ADME, cell-based; conditions: read-out: Activity

Row | Structure (SMILES) | viability at 24 h, 50 µM
4 | O=C(NCCCCCC[P+](c1ccccc1)(c1ccccc1)c1ccccc1)c1cc(O)c(O)c(O)c1.[Br-] | 98.2%
5 | CS(=O)(=O)[O-].O=C(Cc1ccc(O)c(O)c1)NCCCCCC[P+](c1ccccc1)(c1ccccc1)c1ccccc1 | 96.9%
6 | CS(=O)(=O)[O-].O=C(Cc1cc(O)c(O)c(O)c1)NCCCCCC[P+](c1ccccc1)(c1ccccc1)c1ccccc1 | 93.7%

tested on: not listed separately; assay: Cytotoxicity against human HepG2 cells assessed as cell metabolic activity at 10 uM incubated for 48 hrs by resazurin assay relative to control; type: ADME, cell-based; conditions: read-out: Activity

Row | Structure (SMILES) | viability at 48 h, 10 µM
7 | O=C(NCCCCCC[P+](c1ccccc1)(c1ccccc1)c1ccccc1)c1cc(O)c(O)c(O)c1.[Br-] | 89.4%
8 | CS(=O)(=O)[O-].O=C(Cc1ccc(O)c(O)c1)NCCCCCC[P+](c1ccccc1)(c1ccccc1)c1ccccc1 | 103%
9 | CS(=O)(=O)[O-].O=C(Cc1cc(O)c(O)c(O)c1)NCCCCCC[P+](c1ccccc1)(c1ccccc1)c1ccccc1 | 106%

tested on: not listed separately; assay: Antioxidant activity assessed as DPPH radical scavenging activity measured after 45 mins by UV-Visible spectrophotometric based assay; type: functional; conditions: not given

Row | Structure (SMILES) | IC50
10 | O=C(NCCCCCC[P+](c1ccccc1)(c1ccccc1)c1ccccc1)c1cc(O)c(O)c(O)c1.[Br-] | 14 µM
11 | CS(=O)(=O)[O-].O=C(Cc1ccc(O)c(O)c1)NCCCCCC[P+](c1ccccc1)(c1ccccc1)c1ccccc1 | 55 µM
12 | CS(=O)(=O)[O-].O=C(Cc1cc(O)c(O)c(O)c1)NCCCCCC[P+](c1ccccc1)(c1ccccc1)c1ccccc1 | 23.5 µM

tested on: not listed separately; assay: Antioxidant activity assessed as ABTS radical scavenging activity measured after 15 mins by UV-Visible spectrophotometric based assay; type: functional; conditions: not given

Row | Structure (SMILES) | IC50
13 | O=C(NCCCCCC[P+](c1ccccc1)(c1ccccc1)c1ccccc1)c1cc(O)c(O)c(O)c1.[Br-] | 6.5 µM
14 | CS(=O)(=O)[O-].O=C(Cc1ccc(O)c(O)c1)NCCCCCC[P+](c1ccccc1)(c1ccccc1)c1ccccc1 | 27.2 µM
15 | CS(=O)(=O)[O-].O=C(Cc1cc(O)c(O)c(O)c1)NCCCCCC[P+](c1ccccc1)(c1ccccc1)c1ccccc1 | 9.5 µM

tested on: not listed separately; assay: Electrochemical behavior of the compound assessed as redox potential corrected toward saturated Ag/AgCl reference electrode by cyclic voltammetry; conditions: not given

Row | Structure (SMILES) | Activity
16 | O=C(NCCCCCC[P+](c1ccccc1)(c1ccccc1)c1ccccc1)c1cc(O)c(O)c(O)c1.[Br-] | 115 mV
17 | CS(=O)(=O)[O-].O=C(Cc1ccc(O)c(O)c1)NCCCCCC[P+](c1ccccc1)(c1ccccc1)c1ccccc1 | 141 mV
18 | CS(=O)(=O)[O-].O=C(Cc1cc(O)c(O)c(O)c1)NCCCCCC[P+](c1ccccc1)(c1ccccc1)c1ccccc1 | 58 mV

tested on: not listed separately; assay: Electrochemical behavior of the compound assessed as redox potential corrected toward saturated Ag/AgCl reference electrode by differential pulse voltammetry; conditions: not given

Row | Structure (SMILES) | Activity
19 | O=C(NCCCCCC[P+](c1ccccc1)(c1ccccc1)c1ccccc1)c1cc(O)c(O)c(O)c1.[Br-] | 559 mV
20 | CS(=O)(=O)[O-].O=C(Cc1ccc(O)c(O)c1)NCCCCCC[P+](c1ccccc1)(c1ccccc1)c1ccccc1 | 141 mV
21 | CS(=O)(=O)[O-].O=C(Cc1cc(O)c(O)c(O)c1)NCCCCCC[P+](c1ccccc1)(c1ccccc1)c1ccccc1 | 469 mV

tested on: not listed separately; assay: Metal chelating activity assessed as compound-Fe2+ complex formation at 100 uM incubated for 10 mins by ferrozine spectrophotometric assay; conditions: not given

Row | Structure (SMILES) | Activity
22 | O=C(NCCCCCC[P+](c1ccccc1)(c1ccccc1)c1ccccc1)c1cc(O)c(O)c(O)c1.[Br-] | > 80%
23 | CS(=O)(=O)[O-].O=C(Cc1ccc(O)c(O)c1)NCCCCCC[P+](c1ccccc1)(c1ccccc1)c1ccccc1 | > 80%
24 | CS(=O)(=O)[O-].O=C(Cc1cc(O)c(O)c(O)c1)NCCCCCC[P+](c1ccccc1)(c1ccccc1)c1ccccc1 | 95.3%

tested on: not listed separately; assay: Cytotoxicity against human SH-SY5Y cells assessed as cell metabolic activity at 10 uM incubated for 24 hrs by MTT assay relative to control; type: ADME, cell-based; conditions: read-out: Activity

Row | Structure (SMILES) | viability at 24 h, 10 µM
25 | O=C(NCCCCCC[P+](c1ccccc1)(c1ccccc1)c1ccccc1)c1cc(O)c(O)c(O)c1.[Br-] | 100%
26 | CS(=O)(=O)[O-].O=C(Cc1ccc(O)c(O)c1)NCCCCCC[P+](c1ccccc1)(c1ccccc1)c1ccccc1 | 95.3%
27 | CS(=O)(=O)[O-].O=C(Cc1cc(O)c(O)c(O)c1)NCCCCCC[P+](c1ccccc1)(c1ccccc1)c1ccccc1 | 90.6%

tested on: not listed separately; assay: Cytotoxicity against human HepG2 cells assessed as cell metabolic activity at 50 uM incubated for 48 hrs by resazurin assay relative to control; type: ADME, cell-based; conditions: read-out: Activity

Row | Structure (SMILES) | viability at 48 h, 50 µM
28 | O=C(NCCCCCC[P+](c1ccccc1)(c1ccccc1)c1ccccc1)c1cc(O)c(O)c(O)c1.[Br-] | 88.5%
29 | CS(=O)(=O)[O-].O=C(Cc1ccc(O)c(O)c1)NCCCCCC[P+](c1ccccc1)(c1ccccc1)c1ccccc1 | 100%
30 | CS(=O)(=O)[O-].O=C(Cc1cc(O)c(O)c(O)c1)NCCCCCC[P+](c1ccccc1)(c1ccccc1)c1ccccc1 | 87.7%

tested on: SH-SY5Y; assay: Induction of ROS generation in human SH-SY5Y cells at 50 uM incubated for 24 hrs by DCFH-DA probe based fluorescence assay relative to control; type: functional; conditions: not given

Row | Structure (SMILES) | Activity
31 | O=C(NCCCCCC[P+](c1ccccc1)(c1ccccc1)c1ccccc1)c1cc(O)c(O)c(O)c1.[Br-] | Active
32 | CS(=O)(=O)[O-].O=C(Cc1ccc(O)c(O)c1)NCCCCCC[P+](c1ccccc1)(c1ccccc1)c1ccccc1 | 81.3%
33 | CS(=O)(=O)[O-].O=C(Cc1cc(O)c(O)c(O)c1)NCCCCCC[P+](c1ccccc1)(c1ccccc1)c1ccccc1 | Active

tested on: SH-SY5Y; assay: Neuroprotective activity against 6-OHDA-induced toxicity in human SH-SY5Y cells assessed as reduction in cell damage at 10 to 50 uM pretreated for 24 hrs followed by 6-OHDA challenge and measured after 24 hrs by MTT assay relative to control; type: functional; conditions: not given

Row | Structure (SMILES) | Activity
34 | O=C(NCCCCCC[P+](c1ccccc1)(c1ccccc1)c1ccccc1)c1cc(O)c(O)c(O)c1.[Br-] | inactive
35 | CS(=O)(=O)[O-].O=C(Cc1ccc(O)c(O)c1)NCCCCCC[P+](c1ccccc1)(c1ccccc1)c1ccccc1 | Active
36 | CS(=O)(=O)[O-].O=C(Cc1cc(O)c(O)c(O)c1)NCCCCCC[P+](c1ccccc1)(c1ccccc1)c1ccccc1 | Active

tested on: SH-SY5Y; assay: Neuroprotective activity against H2O2-induced oxidative damage in human SH-SY5Y cells assessed as reduction in cell damage at 10 uM pretreated for 24 hrs followed by H2O2 challenge measured after 30 mins by MTT assay relative to control; type: functional; parameters: scale not given: the % may be the effect or the level left; conditions: not given

Row | Structure (SMILES) | Activity
37 | O=C(NCCCCCC[P+](c1ccccc1)(c1ccccc1)c1ccccc1)c1cc(O)c(O)c(O)c1.[Br-] | 70.8 - 83.3%
38 | CS(=O)(=O)[O-].O=C(Cc1cc(O)c(O)c(O)c1)NCCCCCC[P+](c1ccccc1)(c1ccccc1)c1ccccc1 | inactive

tested on: SH-SY5Y; assay: Neuroprotective activity against H2O2-induced oxidative damage in human SH-SY5Y cells assessed as reduction in cell damage at 50 uM pretreated for 24 hrs followed by H2O2 challenge measured after 30 mins by MTT assay relative to control; type: functional; parameters: scale not given: the % may be the effect or the level left; conditions: not given

Row | Structure (SMILES) | Activity
39 | O=C(NCCCCCC[P+](c1ccccc1)(c1ccccc1)c1ccccc1)c1cc(O)c(O)c(O)c1.[Br-] | 70.8 - 83.3%
40 | CS(=O)(=O)[O-].O=C(Cc1ccc(O)c(O)c1)NCCCCCC[P+](c1ccccc1)(c1ccccc1)c1ccccc1 | inactive
41 | CS(=O)(=O)[O-].O=C(Cc1cc(O)c(O)c(O)c1)NCCCCCC[P+](c1ccccc1)(c1ccccc1)c1ccccc1 | inactive

tested on: SH-SY5Y; assay: Neuroprotective activity against TBHP-induced oxidative damage in human SH-SY5Y cells assessed as increase in cell viability at 50 uM pretreated for 24 hrs followed by TBHP stimulation measured after 4 hrs by MTT assay relative to control; type: functional; conditions: not given

Row | Structure (SMILES) | Activity
42 | O=C(NCCCCCC[P+](c1ccccc1)(c1ccccc1)c1ccccc1)c1cc(O)c(O)c(O)c1.[Br-] | inactive
43 | CS(=O)(=O)[O-].O=C(Cc1ccc(O)c(O)c1)NCCCCCC[P+](c1ccccc1)(c1ccccc1)c1ccccc1 | 22.3%
44 | CS(=O)(=O)[O-].O=C(Cc1cc(O)c(O)c(O)c1)NCCCCCC[P+](c1ccccc1)(c1ccccc1)c1ccccc1 | inactive

tested on: not listed separately; assay: Cytotoxicity against human CMEC/D3 cells assessed as reduction in cell viability at 50 to 100 uM incubated for 4 hrs by MTT assay relative to control; type: cell-based; conditions: hcmec/d3, 4 h

Row | Structure (SMILES) | Activity
45 | CS(=O)(=O)[O-].O=C(Cc1ccc(O)c(O)c1)NCCCCCC[P+](c1ccccc1)(c1ccccc1)c1ccccc1 | Non-Toxic
46 | CS(=O)(=O)[O-].O=C(Cc1cc(O)c(O)c(O)c1)NCCCCCC[P+](c1ccccc1)(c1ccccc1)c1ccccc1 | Non-Toxic

tested on: not listed separately; assay: Apparent permeability across apical to basolateral side in human CMEC/D3 cells at 100 uM incubated up to 180 mins by UV-VIS spectroscopic method; type: ADME, cell-based; conditions: hcmec/d3, 3 h

Row | Structure (SMILES) | permeability
47 | CS(=O)(=O)[O-].O=C(Cc1ccc(O)c(O)c1)NCCCCCC[P+](c1ccccc1)(c1ccccc1)c1ccccc1 | 71.9%
48 | CS(=O)(=O)[O-].O=C(Cc1cc(O)c(O)c(O)c1)NCCCCCC[P+](c1ccccc1)(c1ccccc1)c1ccccc1 | 65.4%

tested on: not listed separately; assay: Apparent permeability across apical to basolateral side in human CMEC/D3 cells at 100 uM incubated by UV-VIS spectroscopic method; type: ADME, cell-based; conditions: hcmec/d3, 100 µM, TDE = time-dependent effect

Row | Structure (SMILES) | permeability
49 | CS(=O)(=O)[O-].O=C(Cc1ccc(O)c(O)c1)NCCCCCC[P+](c1ccccc1)(c1ccccc1)c1ccccc1 | Tde
50 | CS(=O)(=O)[O-].O=C(Cc1cc(O)c(O)c(O)c1)NCCCCCC[P+](c1ccccc1)(c1ccccc1)c1ccccc1 | Tde

Reference: ChEMBL document CHEMBL4390649, “Fine-tuning the neuroprotective and blood-brain barrier permeability profile of multi-target agents designed to prevent progressive mitochondrial dysfunction” (Eur J Med Chem, 2019)
